Source: ChEMBL document CHEMBL5634133, “Indirubin derivatives as bifunctional molecules inducing DNA damage and targeting PARP for the treatment of cancer” (Eur J Med Chem, 2023)
pIC50: −log10 of the molar value.

How the values were obtained:
Format in all cases: functional, cell-based
NCM460 = assay: Antiproliferative activity against human NCM460 cells assessed as inhibition of cell viability incubated for 72 hrs by CCK8 assay; settings: NCM460, 72 h
A549 = assay: Antiproliferative activity against human A549 cells assessed as inhibition of cell viability incubated for 72 hrs by CCK8 assay; settings: A549, 72 h
HCT-116 = assay: Antiproliferative activity against human HCT-116 cells assessed as inhibition of cell viability incubated for 72 hrs by CCK8 assay; settings: HCT-116, 72 h
MV4-11 = assay: Antiproliferative activity against human MV4-11 cells assessed as inhibition of cell viability incubated for 72 hrs by CCK8 assay; settings: MV4-11, 72 h
MCF7 = assay: Antiproliferative activity against human MCF7 cells assessed as inhibition of cell viability incubated for 72 hrs by CCK8 assay; settings: MCF7, 72 h

pIC50 (A549)	pIC50 (HCT-116)	pIC50 (MV4-11)	pIC50 (MCF7)	SMILES	pIC50 (NCM460)
< 4.30	< 4.30	< 4.30	< 4.30	NC(=O)c1cccc2cn(-c3ccc([C@@H]4CCCN(C(=O)CCCCCCO/N=C5/C(=C6/C(=O)Nc7ccccc76)Nc6ccccc65)C4)cc3)nc12	< 4.22
5.36	5.51	4.93	5.74	O=C1Nc2ccccc2/C1=C1/Nc2ccccc2/C1=N\OCCCCNC(=O)c1cc(Cc2n[nH]c(=O)c3ccccc23)ccc1F	5.09
< 4.30	< 4.30	< 4.30	< 4.30	NC(=O)c1cccc2cn(-c3ccc([C@@H]4CCCN(C(=O)CCCCCCCO/N=C5/C(=C6/C(=O)Nc7ccccc76)Nc6ccccc65)C4)cc3)nc12	< 4.22
4.37	4.56	4.48	4.36	O=C1Nc2ccccc2/C1=C1/Nc2ccccc2/C1=N\OCc1ccc(C(=O)N2CCN(C(=O)c3cc(Cc4n[nH]c(=O)c5ccccc45)ccc3F)CC2)cc1	< 4.22
< 4.30	4.49	< 4.30	< 4.30	O=C1Nc2ccccc2/C1=C1/Nc2ccccc2/C1=N\OCCCCCC(=O)N1CCN(C(=O)c2ccc(Cc3n[nH]c(=O)c4ccccc34)cc2F)CC1	< 4.22
4.31	4.50	4.40	4.33	NC(=O)c1cccc2cn(-c3ccc([C@@H]4CCCN(C(=O)c5ccc(CO/N=C6/C(=C7/C(=O)Nc8ccccc87)Nc7ccccc76)cc5)C4)cc3)nc12	< 4.22
4.32	4.56	4.44	4.38	NC(=O)c1cccc2cn(-c3ccc([C@@H]4CCCN(C(=O)CCCCO/N=C5/C(=C6/C(=O)Nc7ccccc76)Nc6ccccc65)C4)cc3)nc12	< 4.22
< 4.30	4.35	4.32	< 4.30	O=C1Nc2ccccc2/C1=C1/Nc2ccccc2/C1=N\OCC1CCN(C(=O)c2cc(Cc3n[nH]c(=O)c4ccccc34)ccc2F)CC1	< 4.22
< 4.30	4.33	< 4.30	< 4.30	O=C1Nc2ccccc2/C1=C1/Nc2ccccc2/C1=N\OCCCCCCNC(=O)c1cc(Cc2n[nH]c(=O)c3ccccc23)ccc1F	< 4.22
< 4.30	4.36	< 4.30	< 4.30	O=C1Nc2ccccc2/C1=C1/Nc2ccccc2/C1=N\OCCCCCCCC(=O)N1CCN(C(=O)c2ccc(Cc3n[nH]c(=O)c4ccccc34)cc2F)CC1	< 4.22
4.42	4.68	4.41	4.35	O=C1Nc2ccccc2/C1=C1/Nc2ccccc2/C1=N\OCCCCC(=O)N1CCN(C(=O)c2ccc(Cc3n[nH]c(=O)c4ccccc34)cc2F)CC1	< 4.22
< 4.30	4.59	< 4.30	< 4.30	O=C1Nc2ccccc2/C1=C1/Nc2ccccc2/C1=N\OCCCCCNC(=O)c1cc(Cc2n[nH]c(=O)c3ccccc23)ccc1F	< 4.22
5.09	4.86	4.83	5.16	O=C1Nc2ccccc2/C1=C1/Nc2ccccc2/C1=N\OCCCNC(=O)c1cc(Cc2n[nH]c(=O)c3ccccc23)ccc1F	5.03
< 4.30	4.55	< 4.30	< 4.30	O=C1Nc2ccc(Cl)cc2/C1=C1/Nc2ccccc2/C1=N\OCCCC(=O)N1CCN(C(=O)c2cc(Cc3n[nH]c(=O)c4ccccc34)ccc2F)CC1	< 4.22
< 4.30	< 4.30	< 4.30	< 4.30	O=C1Nc2ccccc2/C1=C1/Nc2ccccc2/C1=N\OCCCCCCCNC(=O)c1cc(Cc2n[nH]c(=O)c3ccccc23)ccc1F	< 4.22
